The target of data set [1] is Human immunodeficiency virus type 1 protease (Human immunodeficiency virus 1, UniProt Q72874). Kind of data set: Inhibition of human immunodeficiency virus (HIV) protease isolated enzyme assay.
Data set [2] is described as follows: Antiviral activity was evaluated by whole cell based assay. It counts as functional.
Data set [3] concerns Human immunodeficiency virus 1. Briefly: Compound was evaluated for potency against HIV single mutant I84V strain. It counts as functional.
In data set [4] the test system is Human immunodeficiency virus 1. Kind of data set: Compound was evaluated for potency against […] HIV WT strain. The data set is classed as functional.
Data set [5] has as its system Human immunodeficiency virus 1. Briefly: Compound was evaluated for potency against Double mutant HIV I84V/V82F strains. It counts as functional.
Data set [6] in a line: Solubility in 0.1 N HCl. Conditions: read-out: S. The data set is classed as physicochemical.

Values after ≈ are worked out from the molar mass of the structure shown.

Consider `CCCCCC[C@@H]1[C@H](O)[C@@H](O)[C@@H](CCCCCC)N(Cc2cccc(C(=O)Nc3nc4ccccc4[nH]3)c2)C(=O)N1Cc1cccc(C(=O)Nc2nc3ccccc3[nH]2)c1`, for which, in data set [1], the Ki (as a rule, a measure of affinity in units of concentration, obtained from inhibition or displacement) came to 0.35 nM. In addition, the IC90 (in general, the point of the concentration-response curve where the effect stands at 90%) in data set [2] stood at 86 nM.
With `O=C(Nc1nc2ccccc2[nH]1)c1cccc(CN2C(=O)N(Cc3cccc(C(=O)Nc4nc5ccccc5[nH]4)c3)[C@H](Cc3ccccc3)[C@H](O)[C@@H](O)[C@H]2Cc2ccccc2)c1`, the concentration for an effect of 90% (IC90) was 5 nM in data set [3], 5 nM in data set [4], 21 nM in data set [5] and 5 nM in data set [2]. For the same molecule, in data set [6], the solubility was 0.05 µg/mL (≈ 0.0606 µM).
In data set [1], `O=C(Nc1nc2ccccc2[nH]1)c1cccc(CN2C(=O)N(Cc3cccc(C(=O)Nc4nc5ccccc5[nH]4)c3)[C@H](C3CCCCC3)[C@H](O)[C@@H](O)[C@H]2C2CCCCC2)c1` returned a Ki of 0.29 nM. Further, in data set [2], the concentration for an effect of 90% (IC90) turned out to be 14 nM.
In the same order, the values of `CC[C@@H]1[C@H](O)[C@@H](O)[C@@H](CC)N(Cc2cccc(C(=O)Nc3nc4ccccc4[nH]3)c2)C(=O)N1Cc1cccc(C(=O)Nc2nc3ccccc3[nH]2)c1` are 4.5 nM and 570 nM.
`CC[C@@H]1[C@H](O)[C@@H](O)[C@@H](Cc2ccccc2)N(Cc2cccc(C(=O)Nc3nc4ccccc4[nH]3)c2)C(=O)N1Cc1cccc(C(=O)Nc2nc3ccccc3[nH]2)c1` had a Ki in data set [1] of 0.069 nM. In data set [2], the IC90 is 26 nM.
On to `CN(C)c1ccc(C[C@@H]2[C@H](O)[C@@H](O)[C@@H](Cc3ccc(N(C)C)cc3)N(Cc3cccc(C(=O)Nc4nc5ccccc5[nH]4)c3)C(=O)N2Cc2cccc(C(=O)Nc3nc4ccccc4[nH]3)c2)cc1`, for which the concentration for an effect of 90% (IC90) in data set [3] turned out to be 8 nM; in data set [4] it was 8 nM; in data set [5], 22 nM; in data set [2] it was 8 nM. The molecule further yielded an inhibition constant (Ki) in data set [1] of 0.038 nM. The solubility in data set [6] amounted to 13.2 µg/mL (≈ 14.5 µM).
Regarding `CCCCCC[C@@H]1[C@H](O)[C@@H](O)[C@@H](Cc2ccccc2)N(Cc2cccc(C(=O)Nc3nc4ccccc4[nH]3)c2)C(=O)N1Cc1cccc(C(=O)Nc2nc3ccccc3[nH]2)c1`, the IC90 in data set [3] stood at 24 nM; in data set [4], 9 nM; in data set [5], 24 nM; in data set [2], 9 nM. Also, the inhibition constant Ki in data set [1] worked out at 0.046 nM. The solubility in data set [6] is 118 µg/mL (≈ 144 µM).
In data set [1], `COc1ccc(C[C@@H]2[C@H](O)[C@@H](O)[C@@H](Cc3ccc(OC)cc3)N(Cc3cccc(C(=O)Nc4nc5ccccc5[nH]4)c3)C(=O)N2Cc2cccc(C(=O)Nc3nc4ccccc4[nH]3)c2)cc1` yielded an inhibition constant Ki of 0.026 nM. In addition, the 90% effect concentration (IC90) in data set [2] came to 19 nM.
In the same order, the values of `O=C(Nc1nc2ccccc2[nH]1)c1cccc(CN2C(=O)N(Cc3cccc(C(=O)Nc4nc5ccccc5[nH]4)c3)[C@H](Cc3ccc(OCc4ccccc4)cc3)[C@H](O)[C@@H](O)[C@H]2Cc2ccc(OCc3ccccc3)cc2)c1` are 3.7 nM and 125 nM.
Turning to `CC(C)C[C@@H]1[C@H](O)[C@@H](O)[C@@H](CC(C)C)N(Cc2cccc(C(=O)Nc3nc4ccccc4[nH]3)c2)C(=O)N1Cc1cccc(C(=O)Nc2nc3ccccc3[nH]2)c1`, the IC90 in data set [3] was found to be 20 nM; in data set [4], 26 nM; in data set [5] it was 12 nM; in data set [2], 59 nM. The same molecule had an inhibition constant (Ki) in data set [1] of 0.3 nM.
The molecule `O=C(Nc1nc2ccccc2[nH]1)c1cccc(CN2C(=O)N(Cc3cccc(C(=O)Nc4nc5ccccc5[nH]4)c3)[C@H](Cc3ccc(O)cc3)[C@H](O)[C@@H](O)[C@H]2Cc2ccc(O)cc2)c1` came in with an inhibition constant (Ki) in data set [1] of 0.035 nM. This molecule yielded an IC90 in data set [2] of 35 nM.
Consider `Nc1ccc(C[C@@H]2[C@H](O)[C@@H](O)[C@@H](Cc3ccc(N)cc3)N(Cc3cccc(C(=O)Nc4nc5ccccc5[nH]4)c3)C(=O)N2Cc2cccc(C(=O)Nc3nc4ccccc4[nH]3)c2)cc1`, for which the 90% effect concentration (IC90) was determined as 23 nM in data set [3], 10 nM in data set [4], 76 nM in data set [5] and 10 nM in data set [2]. Besides, the affinity in data set [1], expressed as Ki, was 0.016 nM. For the same molecule, the solubility in data set [6] was determined as 8.3 µg/mL (≈ 9.71 µM).
In the case of `CC(C)C[C@@H]1[C@H](O)[C@@H](O)[C@@H](Cc2ccccc2)N(Cc2cccc(C(=O)Nc3nc4ccccc4[nH]3)c2)C(=O)N1Cc1cccc(C(=O)Nc2nc3ccccc3[nH]2)c1`, the IC90 in data set [3] amounted to 9 nM; in data set [4], 10 nM; in data set [5], 82 nM; in data set [2], 10 nM. In data set [1], this molecule registered a Ki of 0.038 nM. Further, the solubility in data set [6] worked out at 160 µg/mL (≈ 202 µM).

Source of the values: ChEMBL document CHEMBL1130807, “The synthesis of symmetrical and unsymmetrical P1/P1' cyclic ureas as HIV protease inhibitors” (Bioorg Med Chem Lett, 1998).
